Results as given in PubChem BioAssay AID1963964 (Molecular Pharmacology Branch, DTP, NCI, 2024).

Tested on: 997726-040-R-J2-PDC tumor spheroids, viability
Test: Anticancer human tumor 997726-040-R-J2-PDC patient-derived squamous cell lung carcinoma cell line growth inhibition [PI3K]
Conditions: spheroids with HUVEC and MSC; for IC50: curve of first compound; for viability, T/C: stronger effect = lower value
Summary of the method: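 Viability of mixed-cell spheroids was determined after exposure to pairwise combinations, one partner being inavolisib, alpelisib, duvelisib or copanlisib. Highest tested concentration matched clinical Cmax where known and 10 microM where not, descending in half-log steps.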

[1] = second compound 0.00316 µM, first compound 0.0316 µM
[2] = second compound 0.00316 µM, first compound 0.1 µM
[3] = second compound 0.00316 µM, first compound 0.316 µM
[4] = second compound 0.00316 µM, first compound 1 µM
[5] = second compound 0.00316 µM, first compound 3.16 µM
[6] = second compound 0.00316 µM, first compound 10 µM
[7] = second compound 0.01 µM, first compound 0.0316 µM
[8] = second compound 0.01 µM, first compound 0.1 µM
[9] = second compound 0.01 µM, first compound 0.316 µM
[10] = second compound 0.01 µM, first compound 1 µM
[11] = second compound 0.01 µM, first compound 3.16 µM
[12] = second compound 0.01 µM, first compound 10 µM
[13] = second compound 0.0316 µM, first compound 0.0316 µM
[14] = second compound 0.0316 µM, first compound 0.1 µM
[15] = second compound 0.0316 µM, first compound 0.316 µM
[16] = second compound 0.0316 µM, first compound 1 µM
[17] = second compound 0.0316 µM, first compound 3.16 µM
[18] = second compound 0.0316 µM, first compound 10 µM
[19] = second compound 0.1 µM, first compound 0.0316 µM
[20] = second compound 0.1 µM, first compound 0.1 µM
[21] = second compound 0.1 µM, first compound 0.316 µM
[22] = second compound 0.1 µM, first compound 1 µM
[23] = second compound 0.1 µM, first compound 3.16 µM
[24] = second compound 0.1 µM, first compound 10 µM
[25] = second compound 0.316 µM, first compound 0.0316 µM
[26] = second compound 0.316 µM, first compound 0.1 µM
[27] = second compound 0.316 µM, first compound 0.316 µM
[28] = second compound 0.316 µM, first compound 1 µM
[29] = second compound 0.316 µM, first compound 3.16 µM
[30] = second compound 0.316 µM, first compound 10 µM
[31] = second compound 1 µM, first compound 0.0316 µM
[32] = second compound 1 µM, first compound 0.1 µM
[33] = second compound 1 µM, first compound 0.316 µM
[34] = second compound 1 µM, first compound 1 µM
[35] = second compound 1 µM, first compound 3.16 µM
[36] = second compound 1 µM, first compound 10 µM
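Further: spheroids exposed to compounds for seven days before readout.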

## CC(C)NCC(C(=O)N1CCN(c2ncnc3c2C(C)CC3O)CC1)c1ccc(Cl)cc1 (stereo unspecified) + CC(Nc1ccc2c(c1)OCCn1cc(N3C(=O)OCC3C(F)F)nc1-2)C(N)=O
Second compound 0.00316 µM
  IC50: 269 nM
Second compound 0.01 µM
  IC50: 233 nM
Second compound 0.0316 µM
  IC50: 149 nM
Second compound 0.1 µM
  IC50: 35.8 nM
Second compound 0.316 µM
  IC50: < 31.6 nM
Second compound 1 µM
  IC50: < 31.6 nM
[1]
  viability, T/C: 77.7%
[2]
  viability, T/C: 68.9%
[3]
  viability, T/C: 45.2%
[4]
  viability, T/C: 27.8%
[5]
  viability, T/C: 10.2%
[6]
  viability, T/C: 9.8%
[7]
  viability, T/C: 71.5%
[8]
  viability, T/C: 65.8%
[9]
  viability, T/C: 41.3%
[10]
  viability, T/C: 30.3%
[11]
  viability, T/C: 10.5%
[12]
  viability, T/C: 7.89%
[13]
  viability, T/C: 53.3%
[14]
  viability, T/C: 57.7%
[15]
  viability, T/C: 41.3%
[16]
  viability, T/C: 26.6%
[17]
  viability, T/C: 12.4%
[18]
  viability, T/C: 8.75%
[19]
  viability, T/C: 52.1%
[20]
  viability, T/C: 37.7%
[21]
  viability, T/C: 31.4%
[22]
  viability, T/C: 22.4%
[23]
  viability, T/C: 11.2%
[24]
  viability, T/C: 6.81%
[25]
  viability, T/C: 34.7%
[26]
  viability, T/C: 28.8%
[27]
  viability, T/C: 24.6%
[28]
  viability, T/C: 20.6%
[29]
  viability, T/C: 10.6%
[30]
  viability, T/C: 5.02%
[31]
  viability, T/C: 26.2%
[32]
  viability, T/C: 23.6%
[33]
  viability, T/C: 23.4%
[34]
  viability, T/C: 16.5%
[35]
  viability, T/C: 8.21%
[36]
  viability, T/C: 5.34%

## CCN1CCN(Cc2ccc(Nc3ncc(F)c(-c4cc(F)c5nc(C)n(C(C)C)c5c4)n3)nc2)CC1 + CC(Nc1ccc2c(c1)OCCn1cc(N3C(=O)OCC3C(F)F)nc1-2)C(N)=O
Second compound 0.00316 µM
  IC50: > 1000 nM
Second compound 0.01 µM
  IC50: 830 nM
Second compound 0.0316 µM
  IC50: 10.4 nM
Second compound 0.1 µM
  IC50: < 3.16 nM
Second compound 0.316 µM
  IC50: < 3.16 nM
Second compound 1 µM
  IC50: < 3.16 nM
Second compound 0.00316 µM, first compound 0.00316 µM
  viability, T/C: 79%
Second compound 0.00316 µM, first compound 0.01 µM
  viability, T/C: 79.8%
[1]
  viability, T/C: 72.7%
[2]
  viability, T/C: 58.5%
[3]
  viability, T/C: 59.4%
[4]
  viability, T/C: 62.3%
Second compound 0.01 µM, first compound 0.00316 µM
  viability, T/C: 79.8%
Second compound 0.01 µM, first compound 0.01 µM
  viability, T/C: 77.3%
[7]
  viability, T/C: 60.7%
[8]
  viability, T/C: 62.6%
[9]
  viability, T/C: 55.4%
[10]
  viability, T/C: 48.1%
Second compound 0.0316 µM, first compound 0.00316 µM
  viability, T/C: 55%
Second compound 0.0316 µM, first compound 0.01 µM
  viability, T/C: 54.6%
[13]
  viability, T/C: 45.9%
[14]
  viability, T/C: 37.7%
[15]
  viability, T/C: 40.4%
[16]
  viability, T/C: 43.4%
Second compound 0.1 µM, first compound 0.00316 µM
  viability, T/C: 44.7%
Second compound 0.1 µM, first compound 0.01 µM
  viability, T/C: 38.1%
[19]
  viability, T/C: 34.6%
[20]
  viability, T/C: 30.5%
[21]
  viability, T/C: 32.5%
[22]
  viability, T/C: 32.3%
Second compound 0.316 µM, first compound 0.00316 µM
  viability, T/C: 33.4%
Second compound 0.316 µM, first compound 0.01 µM
  viability, T/C: 29.6%
[25]
  viability, T/C: 26.4%
[26]
  viability, T/C: 22%
[27]
  viability, T/C: 23.9%
[28]
  viability, T/C: 23.1%
Second compound 1 µM, first compound 0.00316 µM
  viability, T/C: 29.3%
Second compound 1 µM, first compound 0.01 µM
  viability, T/C: 26.8%
[31]
  viability, T/C: 22.8%
[32]
  viability, T/C: 18.2%
[33]
  viability, T/C: 20.4%
[34]
  viability, T/C: 21.1%

## Cn1ncc(Cl)c1-c1cc(C(=O)NC(CN)Cc2cccc(F)c2)sc1Cl (stereo unspecified) + CC(Nc1ccc2c(c1)OCCn1cc(N3C(=O)OCC3C(F)F)nc1-2)C(N)=O
Second compound 0.00316 µM
  IC50: 82.7 nM
Second compound 0.01 µM
  IC50: 83 nM
Second compound 0.0316 µM
  IC50: 33.1 nM
Second compound 0.1 µM
  IC50: < 31.6 nM
Second compound 0.316 µM
  IC50: < 31.6 nM
Second compound 1 µM
  IC50: < 31.6 nM
[1]
  viability, T/C: 75.1%
[2]
  viability, T/C: 45.4%
[3]
  viability, T/C: 20.1%
[4]
  viability, T/C: 13.6%
[5]
  viability, T/C: 10.8%
[6]
  viability, T/C: 7.43%
[7]
  viability, T/C: 62.8%
[8]
  viability, T/C: 48.7%
[9]
  viability, T/C: 21.5%
[10]
  viability, T/C: 14.8%
[11]
  viability, T/C: 8.36%
[12]
  viability, T/C: 5.21%
[13]
  viability, T/C: 50.1%
[14]
  viability, T/C: 39.8%
[15]
  viability, T/C: 21%
[16]
  viability, T/C: 12%
[17]
  viability, T/C: 7.58%
[18]
  viability, T/C: 3.65%
[19]
  viability, T/C: 41%
[20]
  viability, T/C: 32.6%
[21]
  viability, T/C: 19.7%
[22]
  viability, T/C: 11.2%
[23]
  viability, T/C: 6.59%
[24]
  viability, T/C: 3.25%
[25]
  viability, T/C: 32.3%
[26]
  viability, T/C: 25.9%
[27]
  viability, T/C: 15.7%
[28]
  viability, T/C: 11.2%
[29]
  viability, T/C: 5.81%
[30]
  viability, T/C: 2.34%
[31]
  viability, T/C: 24%
[32]
  viability, T/C: 23.5%
[33]
  viability, T/C: 13.6%
[34]
  viability, T/C: 9.98%
[35]
  viability, T/C: 6.08%
[36]
  viability, T/C: 2.69%
